# Experimental data from US12257070B2, “Pain assessment method based on deep learning model and analysis device” (NEUROGRIN INC., priority 2019, dated 2025).
# How the values were obtained:
# formalin-induced pain = details: FIG. 10A
# Excerpt: The subject animal is a mouse.
# The following experimental results are assessment results obtained by inputting an activity value of an individual cell into a neural network constructed using average calcium activity values.
# FIG. 10 is divided into baseline (B), early (E), inter (I), late (L), and recovery (R) sections according to time.
# capsaicin-induced pain = capsaicin-induced pain assessed by deep learning model from images of cortical nerve cells; assay type: in vivo, mouse; details: capsaicin pain state compared to before administration and after pain has subsided; model trained with formalin pain data; FIG. 11A
# Excerpt: FIG. 11 is an analysis result for capsaicin-induced pain. FIG. 11 is a result of applying a deep learning model trained with formalin pain data to other pain causes. […] FIG. 11B is an ROC curve showing pain classification performance for FIG. 11A. It can be seen from the ROC curve that the AUC value is 0.93, which is a reliable level.
# [1] = tested on: cerebellar Bergmann glial cells; experiment: pain assessment using the activity of cerebellar Bergmann glial cells; assay type: in vivo; details: Bergmann glial cell activity image, cerebellar region; FIG. 13B
# Excerpt: The researcher analyzed pain assessments based on areas of a brain other than cortical nerve cells. Pain assessment results using cerebellar Bergmann glial cells will be described below. Bergmann glial cells are a type of glial cell as described above. In this case, the deep learning model must be trained in advance with an image showing the activity of Bergmann glial cells of the cerebellum (e.g., a two-photon microscope image of a cerebellar region). The training data may be a two-photon microscope image of a cerebellar region and pain information (normal state or pain state) at the time of generating a corresponding image. The experimental results below are the results of the analysis device inputting individual cell activity values into the average value-based neural network model.
# FIG. 13 is a result of assessing pain using the activity of cerebellar Bergmann glial cells. […] The assessment time for capsaicin was a total of 30 minutes, and the activity was assessed for 10 minutes at the time of administration and was further assessed for 10 minutes before and after administration. […] The reference state (Vehicle) is a state in which capsaicin is not injected. Referring to FIG. 13B, it can be seen that the pain assessment result is distinguished as a pain state for about 10 minutes after capsaicin injection. […]
structure (smiles),measurement,setting,value
"C=O [Formalin, formalin]",predicted pain probability (formalin pain),"formalin-induced pain; formalin 5% or 1%, sections baseline, early, inter, late, recovery",appears only in E (early phase)
COc1cc(CNC(=O)CCCC/C=C/C(C)C)ccc1O [capsaicin],predicted pain probability,capsaicin-induced pain,higher
same,time distinguished as a pain state after capsaicin injection,[1],about 10 minutes
CCN(CC)CC(=O)Nc1c(C)cccc1C [lidocaine],predicted pain probability,formalin-induced pain; analgesic given in addition to a high concentration (5%) of formalin,little pain
